Test results as given in ChEMBL document CHEMBL3352459, “Synthesis and evaluation of N-acyl-substituted 1,2-benzisothiazol-3-one derivatives as caspase-3 inhibitors” (Bioorg Med Chem, 2014).
Residues, ends and D or L forms follow the SMILES beside them. *: point of attachment. Cbz = O=C(OCc1ccccc1)*; CH2F = FC*

Columns and labels:
Caspase-3 = target: T1, Caspase-3 (Homo sapiens, UniProt P42574); assay: Inhibition of recombinant human caspase-3 activity using Ac-DEVD-AMC as substrate preincubated for 10 mins by fluorescence assay
T1 sequence (P42574 whole entry): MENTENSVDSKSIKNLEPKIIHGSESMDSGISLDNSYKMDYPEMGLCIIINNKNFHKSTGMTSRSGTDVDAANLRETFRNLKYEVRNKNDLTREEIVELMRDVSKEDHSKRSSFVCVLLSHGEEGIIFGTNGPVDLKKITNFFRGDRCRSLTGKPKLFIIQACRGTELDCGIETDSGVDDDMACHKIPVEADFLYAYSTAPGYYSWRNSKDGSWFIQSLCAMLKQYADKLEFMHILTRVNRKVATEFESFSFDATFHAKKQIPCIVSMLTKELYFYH

Caspase-7 = target: T2, Caspase-7 (Homo sapiens, UniProt P55210); assay: Inhibition of recombinant human caspase-7 activity using Ac-DEVD-AMC as substrate preincubated for 10 mins by fluorescence assay
T2 sequence (P55210 whole entry): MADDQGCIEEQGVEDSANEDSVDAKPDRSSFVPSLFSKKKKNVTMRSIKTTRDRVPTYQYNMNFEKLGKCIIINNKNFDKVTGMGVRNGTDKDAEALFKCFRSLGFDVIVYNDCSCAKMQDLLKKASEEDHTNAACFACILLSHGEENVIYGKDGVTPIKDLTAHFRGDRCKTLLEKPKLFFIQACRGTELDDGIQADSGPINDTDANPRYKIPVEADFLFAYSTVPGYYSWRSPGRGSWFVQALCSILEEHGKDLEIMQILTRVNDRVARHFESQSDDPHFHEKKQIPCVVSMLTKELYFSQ

Jurkat [1] = assay: Antiapoptotic activity in camptothecin-induced human Jurkat cells assessed as apoptotic cells at 50 uM after 2 hrs using Annexin V-FITC and 7-AAD by flow cytometry relative to control; type: functional
Jurkat [2] = assay: Antiapoptotic activity in camptothecin-induced human Jurkat cells assessed as apoptotic cells at 10 uM after 2 hrs using Annexin V-FITC and 7-AAD by flow cytometry relative to control; type: functional

Structure (SMILES)	IC50 (Caspase-3)	IC50 (Caspase-7)	Activity (Jurkat [1])	Activity (Jurkat [2])
O=C(CCc1ccccc1Cl)n1sc2ccccc2c1=O	47.3 nM	158 nM		
Cc1cccc(CCC(=O)n2sc3ccccc3c2=O)c1	95 nM	109 nM		
O=C(CCc1ccc(Cl)cc1)n1sc2ccccc2c1=O	56.9 nM	72.7 nM		
O=C(CCc1cccc(F)c1)n1sc2ccccc2c1=O	87.7 nM	78.4 nM		
O=C(Cc1ccc(-c2ccccc2)cc1)n1sc2ccccc2c1=O	141 nM	115 nM		
O=C(Cc1ccc(Cl)cc1)n1sc2ccccc2c1=O	215 nM	586 nM		
O=C(CCCc1ccccc1)n1sc2ccccc2c1=O	182 nM	166 nM		
O=C(Cc1ccccc1)n1sc2ccccc2c1=O	292 nM	269 nM		
COc1ccc(CCCC(=O)n2sc3ccccc3c2=O)cc1	390 nM	74.9 nM		
O=C(CCc1ccccc1)n1sc2ccccc2c1=O	108 nM	112 nM		
O=C(Cc1ccccc1Cl)n1sc2ccccc2c1=O	193 nM	145 nM		
O=C(CCc1ccc(F)cc1)n1sc2ccccc2c1=O	112 nM	59.7 nM		
O=C(Cc1cccs1)n1sc2ccccc2c1=O	32200 nM	18100 nM		
COc1ccccc1CC(=O)n1sc2ccccc2c1=O	219 nM	207 nM		
CC(=O)N[C@@H](CC(=O)O)C(=O)N[C@@H](CCC(=O)O)C(=O)N[C@H](C(=O)N[C@H](C=O)CC(=O)O)C(C)C		155 nM		
O=C(Cc1cccc(Cl)c1)n1sc2ccccc2c1=O	272 nM	607 nM		
COC(=O)C[C@H](NC(=O)[C@H](C)NC(=O)[C@@H](NC(=O)OCc1ccccc1)C(C)C)C(=O)CF (Cbz-Val-Ala-Asp(OMe)-CH2F)				40.2%
Cc1ccccc1CC(=O)n1sc2ccccc2c1=O	200 nM	370 nM		
O=C(CCCc1cccs1)n1sc2ccccc2c1=O	127 nM	115 nM		
O=C(Cc1cccc(F)c1)n1sc2ccccc2c1=O	899 nM	458 nM		
Cc1ccc(CC(=O)n2sc3ccccc3c2=O)cc1	214 nM	182 nM		
COc1ccc(CC(=O)n2sc3ccccc3c2=O)cc1	1340 nM	213 nM		
O=C(Cc1ccc(F)cc1)n1sc2ccccc2c1=O	1200 nM	608 nM		
COc1ccccc1CCC(=O)n1sc2ccccc2c1=O	137 nM	63.7 nM		
Cc1ccc(CCCC(=O)n2sc3ccccc3c2=O)cc1	266 nM	97.9 nM		
O=C(Nc1ccc(N2CCOCC2)cc1)n1sc2ccccc2c1=O	106 nM	164 nM		

The next lines start with results.

IC50 (Caspase-3)	IC50 (Caspase-7)	Structure (SMILES)	Activity (Jurkat [1])	Activity (Jurkat [2])
326 nM	330 nM	O=C(Cc1ccc(O)cc1)n1sc2ccccc2c1=O		
265 nM	297 nM	O=C(Cc1ccc2ccccc2c1)n1sc2ccccc2c1=O		
306 nM	101 nM	O=C(CCCCc1ccccc1)n1sc2ccccc2c1=O		
339 nM	184 nM	Cc1cccc(CC(=O)n2sc3ccccc3c2=O)c1		
548 nM	211 nM	COc1cccc(CC(=O)n2sc3ccccc3c2=O)c1		
235 nM	56.7 nM	O=C(CCC(=O)n1sc2ccccc2c1=O)c1cccs1		
34.9 nM	54 nM	COc1cccc(CCC(=O)n2sc3ccccc3c2=O)c1	100%	36.6%
49.7 nM	51.9 nM	COc1ccc(CCC(=O)n2sc3ccccc3c2=O)cc1	100%	37.5%
119 nM	72.5 nM	Cc1ccc(CCC(=O)n2sc3ccccc3c2=O)cc1		
186 nM	123 nM	O=C(Cc1ccccc1F)n1sc2ccccc2c1=O		
654 nM	198 nM	O=C(Cc1ccc(Cl)c(Cl)c1)n1sc2ccccc2c1=O		
222 nM	185 nM	O=C(Cc1ccc2c(c1)CCO2)n1sc2ccccc2c1=O		
130 nM	86.9 nM	O=C(CCc1ccccc1F)n1sc2ccccc2c1=O		
